For assay [1], the target named is T1, recombinant human Dopamine Subtype D2s receptors (Homo sapiens, UniProt P14416).
T1 construct: purchased Perkin Elmer
Briefly: Dopamine D2 selectivity binding assay ([3H]-spiperone). As to conditions: inhibition of [3H]-spiperone (0.16 nM) binding; for IC50: read-out: D2 bind pIC50 (converted). In short, it runs like this: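 Displacement of [3H]-spiperone (0.16 nM final) from human D2s receptor membranes in pH 7.4 HEPES buffer over 2 h at room temperature, then filtration and scintillation counting. Specific binding taken as vehicle minus 10 μM haloperidol wells. Potency given as pIC50 from a four-parameter logistic curve.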

The target in assay [2] is T2, recombinant human adrenergic beta 1 receptors (Homo sapiens, UniProt P08588).
T2 construct: purchased Euroscreen
T2 sequence (P08588 whole entry): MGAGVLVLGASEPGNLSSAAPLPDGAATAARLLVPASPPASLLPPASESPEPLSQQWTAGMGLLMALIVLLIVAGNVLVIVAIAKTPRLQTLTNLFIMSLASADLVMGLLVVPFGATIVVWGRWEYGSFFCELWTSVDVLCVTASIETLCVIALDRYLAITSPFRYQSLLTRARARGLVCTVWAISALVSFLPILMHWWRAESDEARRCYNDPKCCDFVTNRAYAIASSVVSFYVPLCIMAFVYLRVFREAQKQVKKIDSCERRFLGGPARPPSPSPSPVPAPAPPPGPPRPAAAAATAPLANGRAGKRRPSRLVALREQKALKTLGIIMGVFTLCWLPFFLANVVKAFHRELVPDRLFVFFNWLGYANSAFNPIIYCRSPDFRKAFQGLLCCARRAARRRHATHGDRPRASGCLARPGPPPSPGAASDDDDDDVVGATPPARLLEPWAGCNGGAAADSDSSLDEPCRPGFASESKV
Put plainly: Adrenergic β1 selectivity binding assay ([125I]-Iodocyanopindolol). The note with it: inhibition of [125I]-Iodocyanopindolol (0.036 nM) binding; for IC50: read-out: β1 bind p IC50 (converted). As for the experimental part: Membranes containing recombinant human adrenergic beta 1 receptors were obtained from Euroscreen. These were diluted in Assay Buffer (50 mM HEPES, 1 mM EDTA, 120 mM NaCl, 0.1% gelatin, pH 7.4) to provide a final concentration of membranes that gave a clear window between maximum and minimum specific binding.
Assays were performed in U-bottomed 96-well polypropylene plates. 10 μL [^125I]-Iodocyanopindolol (0.036 nM final concentration) and 10 μL of test compound (10× final concentration) were added to each test well. For each assay plate 8 replicates were obtained for [^125I]-Iodocyanopindolol binding in the presence of 10 μL vehicle (10% (v/v) DMSO in Assay Buffer; defining maximum binding) or 10 μL Propranolol (10 μM final concentration; defining non-specific binding (NSB)). Membranes were then added to achieve a final volume of 100 μL. The plates were incubated for 2 hours at room temperature and then filtered onto PEI coated GF/B filter plates, pre-soaked for 1 hour in Assay Buffer, using a 96-well plate Tomtec cell harvester. Five washes with 250 μL wash buffer (50 mM HEPES, 1 mM EDTA, 120 mM NaCl, pH 7.4) were performed at 4° C. to remove unbound radioactivity. The plates were dried then sealed from underneath using Packard plate sealers and MicroScint-O (50 μL) was added to each well. The plates were sealed (TopSeal A) and filter-bound radioactivity was measured with a scintillation counter (TopCount, Packard BioScience) using a 3-minute counting protocol.
Total specific binding (B0) was determined by subtracting the mean NSB from the mean maximum binding. NSB values were also subtracted from values from all other wells. […] Data was fitted to a four parameter logistic equation to determine the compound potency, which was expressed as pIC50 (negative log molar concentration inducing 50% inhibition of [^125I]-Iodocyanopindolol binding).

Where a name gives a salt, the structure may show the parent alone.

T1 sequence (P14416 1-414 isoform P14416-2): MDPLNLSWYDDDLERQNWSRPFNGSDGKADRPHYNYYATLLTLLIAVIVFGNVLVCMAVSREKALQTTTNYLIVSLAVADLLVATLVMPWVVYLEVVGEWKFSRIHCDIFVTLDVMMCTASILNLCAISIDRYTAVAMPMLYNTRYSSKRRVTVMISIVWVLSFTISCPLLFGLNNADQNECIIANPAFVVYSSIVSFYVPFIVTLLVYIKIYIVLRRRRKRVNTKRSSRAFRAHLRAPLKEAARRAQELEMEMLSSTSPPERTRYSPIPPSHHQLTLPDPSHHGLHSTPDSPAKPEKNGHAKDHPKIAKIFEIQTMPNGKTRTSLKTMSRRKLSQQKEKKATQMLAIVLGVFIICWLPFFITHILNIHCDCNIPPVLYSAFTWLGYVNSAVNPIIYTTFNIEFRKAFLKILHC

For `O=C(CCNCCc1cccc(F)c1)N(CCNCCc1ccc(O)c2[nH]c(=O)sc12)C1CCCCC1` [Example 15, N-Cyclohexyl-N^3-[2-(3-fluorophenyl)ethyl]-N-(2-{[2-(4-hydroxy-2-oxo-2,3-dihydro-1,3-benzothiazol-7-yl)ethyl]amino}ethyl)-β-alaninamide bis-trifluoroacetic acid salt], the “D2 bind pIC50” value in assay [1] turned out to be 6.4. In addition, the “β1 bind p IC50” value in assay [2] worked out at 5.2.

As for `O=C(CCNCCc1ccc(F)cc1)N(CCNCCc1ccc(O)c2[nH]c(=O)sc12)C1CCCCC1` [Example 16, N-Cyclohexyl-N^3-[2-(4-fluorophenyl)ethyl]-N-(2-{[2-(4-hydroxy-2-oxo-2,3-dihydro-1,3-benzothiazol-7-yl)ethyl]amino}ethyl)-β-alaninamide bis-trifluoroacetic acid salt], the IC50 is 0.631 µM in assay [1] and 7.94 µM in assay [2].

As to `O=C(CCNCCc1ccccc1Cl)N(CCNCCc1ccc(O)c2[nH]c(=O)sc12)C1CCCCC1` [Example 17, N^3-[2-(2-Chlorophenyl)ethyl]-N-cyclohexyl-N-(2-{[2-(4-hydroxy-2-oxo-2,3-dihydro-1,3-benzothiazol-7-yl)ethyl]amino}ethyl)-β-alaninamide bis-trifluoroacetic salt], the IC50 was 0.158 µM in assay [1] and 3.16 µM in assay [2].

As to `O=C(CCNCCc1cccc(Cl)c1)N(CCNCCc1ccc(O)c2[nH]c(=O)sc12)C1CCOCC1` [Example 22, N^3-[2-(3-Chlorophenyl)ethyl]-N-(2-{[2-(4-hydroxy-2-oxo-2,3-dihydro-1,3-benzothiazol-7-yl)ethyl]amino}ethyl)-N-(tetrahydro-2H-pyran-4-yl)-β-alaninamide bis-trifluoroacetic acid salt], the IC50 in assay [1] is 7.94 µM; in assay [2], 3.98 µM.

As for `O=C(CCNCCc1ccccc1)N(CCNCCc1ccc(O)c2[nH]c(=O)sc12)C1CCCCCC1` [Example 23, N-Cycloheptyl-N-(2-{[2-(4-hydroxy-2-oxo-2,3-dihydro-1,3-benzothiazol-7-yl)ethyl]amino}ethyl)-N^3-(2-phenylethyl)-β-alaninamide bis-trifluoroacetic acid salt], the values for the IC50 in assay [1] and in assay [2] were 0.251 µM and 3.98 µM, respectively.

For the compound `O=C(CCNCCc1ccc(Cl)c(Cl)c1)N(CCNCCc1ccc(O)c2[nH]c(=O)sc12)C1CCOCC1` [Example 24, N^3-[2-(3,4-Dichlorophenyl)ethyl]-N-(2-{[2-(4-hydroxy-2-oxo-2,3-dihydro-1,3-benzothiazol-7-yl)ethyl]amino}ethyl)-N-(tetrahydro-2H-pyran-4-yl)-β-alaninamide bis-trifluoroacetic acid salt], the IC50 in assay [1] is 0.794 µM; in assay [2], 2 µM.

With `Cc1cccc(CCNCCC(=O)N(CCNCCc2ccc(O)c3[nH]c(=O)sc23)C2CCOCC2)c1` [Example 25, N-(2-{[2-(4-Hydroxy-2-oxo-2,3-dihydro-1,3-benzothiazol-7-yl)ethyl]amino}ethyl)-N^3-[2-(3-methylphenyl)ethyl]-N-(tetrahydro-2H-pyran-4-yl)-β-alaninamide bis-trifluoroacetic acid salt], the IC50 in assay [1] was 2.51 µM; in assay [2], 5.01 µM.

For `O=C(CCNCCc1ccc(Cl)cc1)N(CCNCCc1ccc(O)c2[nH]c(=O)sc12)C1CCOCC1` [Example 26, N^3-[2-(4-Chlorophenyl)ethyl]-N-(2-{[2-(4-hydroxy-2-oxo-2,3-dihydro-1,3-benzothiazol-7-yl)ethyl]amino}ethyl)-N-(tetrahydro-2H-pyran-4-yl)-β-alaninamide bis-trifluoroacetic acid salt], the IC50 in assay [1] was 1 µM; in assay [2] it was 5.01 µM.

`Cc1ccccc1CCNCCC(=O)N(CCNCCc1ccc(O)c2[nH]c(=O)sc12)C1CCOCC1` [Example 27, N-(2-{[2-(4-Hydroxy-2-oxo-2,3-dihydro-1,3-benzothiazol-7-yl)ethyl]amino}ethyl)-N^3-[2-(2-methylphenyl)ethyl]-N-(tetrahydro-2H-pyran-4-yl)-β-alaninamide bis-trifluoroacetic acid salt]: the figures for the IC50 in assay [1] and in assay [2] were 3.16 µM and 5.01 µM, respectively.

For the compound `O=C(CCNCCc1ccc(Cl)cc1)N(CCNCCc1ccc(O)c2[nH]c(=O)sc12)C1CCCC1` [Example 28, N^3-[2-(4-Chlorophenyl)ethyl]-N-cyclopentyl-N-(2-{[2-(4-hydroxy-2-oxo-2,3-dihydro-1,3-benzothiazol-7-yl)ethyl]amino}ethyl)-β-alaninamide bis-trifluoroacetic acid salt], the IC50 in assay [1] was 0.398 µM; in assay [2], 6.31 µM.

In the case of `O=C(CCNCCc1ccccc1Cl)N(CCNCCc1ccc(O)c2[nH]c(=O)sc12)C1CCCC1` [Example 29, N^3-[2-(2-Chlorophenyl)ethyl]-N-cyclopentyl-N-(2-{[2-(4-hydroxy-2-oxo-2,3-dihydro-1,3-benzothiazol-7-yl)ethyl]amino}ethyl)-β-alaninamide bis-trifluoroacetic acid salt], the IC50 in assay [1] is 0.251 µM; in assay [2], 3.16 µM.

As for `O=C(CCNCCc1cccc(Cl)c1)N(CCNCCc1ccc(O)c2[nH]c(=O)sc12)C1CCCC1` [Example 30, N^3-[2-(3-Chlorophenyl)ethyl]-N-cyclopentyl-N-(2-{[2-(4-hydroxy-2-oxo-2,3-dihydro-1,3-benzothiazol-7-yl)ethyl]amino}ethyl)-β-alaninamide bis-trifluoroacetic acid salt], the IC50 is 0.316 µM in assay [1] and 3.16 µM in assay [2].

As to `C[C@H](CNCCC(=O)N(CCNCCc1ccc(O)c2[nH]c(=O)sc12)C1CCCC1)c1ccccc1` [Example 31, N-cyclopentyl-N-(2-{[2-(4-hydroxy-2-oxo-2,3-dihydro-1,3-benzothiazol-7-yl)ethyl]amino}ethyl)-N^3-[(2S)-2-phenylpropyl]-β-alaninamide bis-trifluoroacetic acid salt], the values for the IC50 in assay [1] and in assay [2] were 0.251 µM and 6.31 µM, respectively.

As for `CC(C)(CNCCC(=O)N(CCNCCc1ccc(O)c2[nH]c(=O)sc12)C1CCCC1)c1ccccc1` [Example 32, N-cyclopentyl-N-(2-{[2-(4-hydroxy-2-oxo-2,3-dihydro-1,3-benzothiazol-7-yl)ethyl]amino}ethyl)-N^3-(2-methyl-2-phenylpropyl)-β-alaninamide bis-trifluoroacetic acid salt], the IC50 is 0.398 µM in assay [1] and 7.94 µM in assay [2].

Consider `O=C(CCNCCc1ccc(O)cc1)N(CCNCCc1ccc(O)c2[nH]c(=O)sc12)C1CCCCC1` [Example 34, N-Cyclohexyl-N-(2-{[2-(4-hydroxy-2-oxo-2,3-dihydro-1,3-benzothiazol-7-yl)ethyl]amino}ethyl)-N^3-[2-(4-hydroxyphenyl)ethyl]-β-alaninamide bis-trifluoroacetic acid salt], for which the IC50 in assay [1] was 0.398 µM; in assay [2], 7.94 µM.

Take `O=C(CCNCCc1cccs1)N(CCNCCc1ccc(O)c2[nH]c(=O)sc12)C1CCCCC1` [Example 35, N-Cyclohexyl-N-(2-{[2-(4-hydroxy-2-oxo-2,3-dihydro-1,3-benzothiazol-7-yl)ethyl]amino}ethyl)-N^3-[2-(2-thienyl)ethyl]-β-alaninamide bis-trifluoroacetic acid salt]: the IC50 in assay [1] was 0.316 µM; in assay [2], 3.98 µM.

On to `O=C(CCNCCc1cccc(F)c1)N(CCNCCc1ccc(O)c2[nH]c(=O)sc12)C1CCCCCC1` [Example 36, N-Cycloheptyl-N^3-[2-(3-fluorophenyl)ethyl]-N-(2-{[2-(4-hydroxy-2-oxo-2,3-dihydro-1,3-benzothiazol-7-yl)ethyl]amino}ethyl)-β-alaninamide bis-trifluoroacetic acid salt], for which the IC50 in assay [1] was 0.2 µM; in assay [2], 3.16 µM.

For the compound `O=C(CCNCCc1cccc(O)c1)N(CCNCCc1ccc(O)c2[nH]c(=O)sc12)C1CCCCCC1` [Example 37, N-Cycloheptyl-N-(2-{[2-(4-hydroxy-2-oxo-2,3-dihydro-1,3-benzothiazol-7-yl)ethyl]amino}ethyl)-N^3-[2-(3-hydroxyphenyl)ethyl]-β-alaninamide bis-trifluoroacetic acid salt], the results for the IC50 in assay [1] and in assay [2] were 0.398 µM and 3.98 µM, respectively.

Take `CC(C)(C)CN(CCNCCc1ccc(O)c2[nH]c(=O)sc12)C(=O)CCNC(C)(C)Cc1ccccc1` [Example 38, N^3-(1,1-Dimethyl-2-phenylethyl)-N-(2,2-dimethylpropyl)-N-(2-{[2-(4-hydroxy-2-oxo-2,3-dihydro-1,3-benzothiazol-7-yl)ethyl]amino}ethyl)-β-alaninamide bis-trifluoroacetic acid salt]: the IC50 was 0.794 µM in assay [1] and 5.01 µM in assay [2].

(Values after patent US20100022491A1, “4-HYDROXY-2-OXO-2,3-DIHYDRO-1,3-BENZOTHIAZOL-7YL COMPOUNDS FOR MODULATION OF B2-ADRENORECEPTOR ACTIVITY” (ASTRAZENECA AB, priority 2006, published 2010).)
